In data set [1] the target is T1, 3-oxo-5-alpha-steroid 4-dehydrogenase 1 (Homo sapiens, UniProt P18405).
T1 sequence (P18405 whole entry): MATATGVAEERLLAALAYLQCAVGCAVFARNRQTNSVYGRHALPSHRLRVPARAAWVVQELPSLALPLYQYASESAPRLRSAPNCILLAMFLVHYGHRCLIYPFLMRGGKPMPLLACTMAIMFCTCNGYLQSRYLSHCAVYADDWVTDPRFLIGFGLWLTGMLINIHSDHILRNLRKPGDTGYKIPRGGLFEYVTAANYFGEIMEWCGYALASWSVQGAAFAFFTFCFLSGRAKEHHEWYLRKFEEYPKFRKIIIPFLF
The data set is described as follows: Inhibition of recombinant human 5-alpha reductase-1 […] after pre-incubation for 10 minutes.

The target in data set [2] is T2, 3-oxo-5-alpha-steroid 4-dehydrogenase 2 (Homo sapiens, UniProt P31213).
T2 sequence (P31213 whole entry): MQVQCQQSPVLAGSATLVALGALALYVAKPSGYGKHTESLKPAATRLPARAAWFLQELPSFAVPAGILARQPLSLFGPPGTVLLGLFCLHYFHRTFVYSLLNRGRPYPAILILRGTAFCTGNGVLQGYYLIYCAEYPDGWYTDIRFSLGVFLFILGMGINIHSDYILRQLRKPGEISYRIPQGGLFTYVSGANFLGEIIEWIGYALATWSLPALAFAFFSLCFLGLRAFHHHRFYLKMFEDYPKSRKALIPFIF
The data set is described as follows: Inhibition of recombinant human 5-alpha reductase-2 […] after pre-incubation for 10 minutes.

The test system of a further data set is Rattus norvegicus. The data set is described as follows: In vivo evaluation in chronic castrated rat to inhibit T-stimulated prostate growth expressed as percentage reduction. In kind it is functional, Prostate gland. More on the design: concentration or dose not given beside the values.
Data set [3] is described as follows: Bioavailability after oral administration in dog. In kind it is ADME, organism-based, Canis lupus familiaris. The note with it: in vivo.
A short description of data set [4]: Half-life in dog. The note with it: in vivo. In kind it is ADME, organism-based, Canis lupus familiaris.

Where only a bound is given, the exact number is not on record here.

With `CC(C)NC(=O)[C@H]1CCC2C3CNC4=CC(=O)CC[C@]4(C)C3CC[C@@]21C` (some centres undefined), in data set [1], the Ki was determined as 6000 nM.
Take `C[C@]12CCC(=O)C=C1NCC1C2CC[C@@]2(C)C1CC[C@@H]2C(=O)NCc1ccccc1` (some centres undefined): the Ki in data set [1] was found to be 360 nM.
With `CCN(C)C(=O)[C@H]1CCC2C3CNC4=CC(=O)CC[C@]4(C)C3CC[C@@]21C` (some centres undefined), the IC50 in data set [2] stood at 2.8 nM. Moreover, the Ki in data set [1] came out at 720 nM.
The corresponding values for `CC(C)N(C(=O)[C@H]1CCC2C3CNC4=CC(=O)CC[C@]4(C)C3CC[C@@]21C)C(C)C` (some centres undefined) are 0.36 nM and 190 nM.
Turning to `C[C@]12CCC(=O)C=C1NCC1C2CC[C@@]2(C)C1CC[C@@H]2C(=O)NC12C[C@H]3C[C@@H](C1)C[C@@H](C2)C3` (some centres undefined), the Ki in data set [1] amounted to 11 nM. Further, in the data set with Rattus norvegicus, the Reduction came to 18%.
As for `C[C@]12CCC(=O)C=C1NCC1C2CC[C@@]2(C)C1CC[C@@H]2C(=O)C1[C@H]2C[C@@H]3C[C@@H](C[C@H]1C3)C2` (some centres undefined), the IC50 in data set [2] turned out to be 0.04 nM. In addition, in data set [1], the inhibitory constant (Ki) was 6.9 nM. This molecule yielded a Reduction with Rattus norvegicus of 26%.
On to `C[C@]12CCC(=O)C=C1NCC1C2CC[C@@]2(C)C1CC[C@@H]2C(=O)NC(c1ccccc1)c1ccccc1` (some centres undefined), for which the IC50 in data set [2] stood at 0.09 nM. Also, in data set [1], the Ki was determined as 30 nM. For the same molecule, the bioavailability in data set [3] came out at 80%. Moreover, the Reduction with Rattus norvegicus was determined as 43%.
For `C[C@]12CCC(=O)C=C1NCC1C2CC[C@@]2(C)C1CC[C@@H]2C(=O)N1CCOCC1` (some centres undefined), the IC50 in data set [2] was determined as 7.1 nM. Besides, the Ki in data set [1] is 2200 nM.
With `COC(=O)[C@H]1CCC2C3CNC4=CC(=O)CC[C@]4(C)C3CC[C@@]21C` (some centres undefined), the Ki in data set [1] turned out to be 150 nM.
For the molecule `C[C@]12CCC(=O)C=C1NCC1C2CC[C@@]2(C)C1CC[C@@H]2C(=O)NC(c1ccc(F)cc1)c1ccc(F)cc1` (some centres undefined), the Ki in data set [1] was 20 nM. This molecule also yielded a Reduction in the data set on Rattus norvegicus of 43%.
With `CON(C)C(=O)[C@H]1CCC2C3CNC4=CC(=O)CC[C@]4(C)C3CC[C@@]21C` (some centres undefined), the IC50 in data set [2] amounted to 2.4 nM. In addition, the Ki in data set [1] is 2300 nM.
Turning to `C[C@]12CCC(=O)C=C1NCC1C2CC[C@@]2(C)C1CC[C@@H]2C(=O)NC(c1ccccc1)(c1ccccc1)c1ccccc1` (some centres undefined), the IC50 in data set [2] is 0.09 nM. The Ki in data set [1] amounted to 8.2 nM. This molecule also displayed a Reduction in the data set with Rattus norvegicus of 4%.
On to `C[C@]12CCC(=O)C=C1NCC1C2CC[C@@]2(C)C1CC[C@@H]2C(=O)N1CCNCC1` (some centres undefined), for which the Ki in data set [1] came out at 8600 nM.
Consider `C[C@]12CCC(=O)C=C1NCC1C2CC[C@@]2(C)C1CC[C@@H]2C(=O)NN(c1ccccc1)c1ccccc1` (some centres undefined), for which, in data set [2], the IC50 stood at 0.23 nM. The Ki in data set [1] came out at 14 nM. The molecule also returned a Reduction in the data set with Rattus norvegicus of 38%.
For the molecule `C[C@]12CCC(=O)C=C1NCC1C2CC[C@@]2(C)C1CC[C@@H]2C(=O)NC(c1ccc(Cl)cc1)c1ccc(Cl)cc1` (some centres undefined), in data set [2], the IC50 is 0.12 nM. Besides, the Ki in data set [1] was found to be 20 nM. In addition, in data set [4], the half-life was 12 h. In addition, in the data set on Rattus norvegicus, the Reduction was determined as 31%.
`CC(C)CC(=O)[C@H]1CCC2C3CNC4=CC(=O)CC[C@]4(C)C3CC[C@@]21C` (some centres undefined): the IC50 in data set [2] came to 0.08 nM. Also, the Ki in data set [1] was 9 nM. The Reduction in the data set on Rattus norvegicus was 18%.
Regarding `C[C@]12CCC(=O)C=C1NCC1C2CC[C@@]2(C)C1CC[C@@H]2C(=O)N(Cc1ccccc1)Cc1ccccc1` (some centres undefined), the Ki in data set [1] turned out to be 75 nM.
Still for that read-out and setting: for `C[C@]12CCC(=O)C=C1NCC1C2CC[C@@]2(C)C1CC[C@@H]2C(=O)N1CCSCC1` (some centres undefined) the value was 570 nM.
Same read-out and setting: for `CC(C)(C)NC(=O)[C@H]1CCC2C3CNC4=CC(=O)CC[C@]4(C)C3CC[C@@]21C` (some centres undefined) the value was 820 nM.
On to `CCN(CC)C(=O)[C@H]1CCC2C3CNC4=CC(=O)CC[C@]4(C)C3CC[C@@]21C` (some centres undefined), for which, in data set [2], the IC50 was found to be 1.5 nM. In data set [1], the Ki was 750 nM.
With `C[C@]12CCC(=O)C=C1NCC1C2CC[C@@]2(C)C1CC[C@@H]2C(=O)NC(C1CCCCC1)C1CCCCC1` (some centres undefined), the IC50 in data set [2] stood at 0.4 nM. Moreover, the Ki in data set [1] is 20 nM. The same molecule showed a Reduction in the data set with Rattus norvegicus of 14%.
`CC(C)(C)NC(=O)[C@H]1CC[C@H]2[C@@H]3CC=C4C=C(C(=O)O)CC[C@]4(C)[C@H]3CC[C@]12C` [EPRISTERIDE]: the IC50 in data set [2] was determined as 30 nM. Further, in data set [1], the Ki is over 5000 nM.
Regarding `CC(C)(C)NC(=O)[C@H]1CC[C@H]2[C@@H]3CC[C@H]4NC(=O)C=C[C@]4(C)[C@H]3CC[C@]12C` [FINASTERIDE], the IC50 in data set [2] was found to be 0.18 nM; in data set [1], 150 nM. Moreover, in the data set on Rattus norvegicus, the Reduction turned out to be 41%.

The term Ki denotes the equilibrium dissociation constant of an inhibitor or competing ligand from its target. By IC50 is commonly meant the concentration needed to halve the response being measured. What is called bioavailability is the share of a dose that reaches the circulation, judged against a reference dose that is usually intravenous. Broadly, the half-life is the time in which the quantity being followed falls by half.

These data come from ChEMBL document CHEMBL1126579, “6-Azasteroids: potent dual inhibitors of human type 1 and 2 steroid 5 alpha-reductase” (J Med Chem, 1993).
